Data taken from patent US12552783B2, “Modulators of proteolysis and associated methods of use” (Arvinas Operations, Inc., priority 2018, dated 2026).

Target: KRas (Homo sapiens, UniProt P01116, G12C)
Test: KRas degradation in SW1573 cells by Western blot, normalized to GAPDH (data of Table 14)
Assay type: cell-based
Details: SW1573 cells
Description: Cell Lines, Antibodies, and Reagents. NCI-H2030 (CRL-5914) and SW1573 (CRL-2170) cells were purchased from ATCC. Both cell lines are homozygous for the G12C mutation in KRas. NCI-H2030 cells were cultured in RPMI-1640 medium containing 1% penicillin-streptomycin and 10% fetal bovine serum (FBS). SW1573 cells were cultured in DMEM containing 1% penicillin-streptomycin and 10% FBS. The KRas detection antibody (Cat. No. LS-C175665) was purchased from LifeSpan Biosciences and was used at a dilution of 1:2000. GAPDH was detected using an antibody purchased from Cell Signaling Technology (Cat. No. 5174) and was diluted 1:3000. Secondary anti-mouse and anti-rabbit detection antibodies were purchased from Cell Signaling Technology (Cat. Nos. 7076 and 7074, respectively).
Compound Treatment and Western Blotting of the Data of Table 14. Either NCI-H2030 or SW1573 cells were plated in 12-well plates and allowed to adhere overnight at 37° C. in an incubator containing 5% CO2. The following day, the medium was replaced with the appropriate medium lacking FBS to induce starvation. Cells were returned to the incubator for an additional 24 hours following media exchange. […] Cells were treated with VHL-based compounds for 24 hours and all other compounds for 72 hours. Following treatment, cells were lysed in RIPA buffer (Thermo Fisher Cat. No. 89900) containing phosphatase (Thermo Fisher Cat. No. 1861277) and protease (Thermo Fisher Cat. No. 78429) inhibitor cocktails. Lysates were cleared at 13,000 rpm for 15 minutes and supernatants were assayed for total protein concentration using the Pierce BCA assay system (Thermo Fisher Cat. No. 23225). For each sample, 10 μg total protein was resolved on a 12% Bis-Tris gel and then transferred to a nitrocellulose membrane. After blocking in 3% BSA in TBST (Tris-buffered Saline with 0.1% Tween-20) for 1 hour at room temperature, membranes were probed with the primary antibody (LS Bio Cat. No. LS-C175665) overnight at 4° C. After incubation with the secondary antibody, the following day membranes were visualized using the SuperSignal™ West Femto substrate (Thermo Fisher Cat. No. 34095). The KRas signal in each lane was normalized to GAPDH and percent degradation was either estimated as less than 25% by visual inspection (C in Table 13) or quantitated relative to the DMSO control lane using BIO-RAD Image Lab 5.2.1, and all data was plotted using GraphPad PRISM 6.07.
DC50 is the half-maximal degradation concentration—i.e., the concentration at which 50% degradation is observed. DMax is the maximum degradation efficacy is achieved—i.e., the maximal degradation observed) degradation data.

| Structure (SMILES) | Percent Degradation at Indicated Concentration (μM) (0.3 μM) | Percent Degradation at Indicated Concentration (μM) (1 μM) | Percent Degradation at Indicated Concentration (μM) (3 μM) | Percent Degradation at Indicated Concentration (μM) (0.1 μM) | Percent Degradation at Indicated Concentration (μM) (0.03 μM) | DC50 | Dmax | Percent Degradation at Indicated Concentration (μM) (0.01 μM) |
| --- | --- | --- | --- | --- | --- | --- | --- | --- |
| Cc1ncsc1-c1ccc([C@H](C)NC(=O)[C@@H]2C[C@@H](O)CN2C(=O)[C@@H](NC(=O)COCCOCCOCCOCCOCCOC2CCN(C[C@@H](C)Oc3nc(N4CCN(C(=O)C(O)O)CC4)c4cc(Cl)c(-c5cc(O)cc6ccccc56)c(F)c4n3)CC2)C(C)(C)C)cc1 [compound 248, (2S,4R)-1-((2S)-2-(tert-butyl)-20-((1-((2R)-2-((6-chloro-4-(4-(2,2-dihydroxyacetyl)piperazin-1-yl)-8-fluoro-7-(3-hydroxynaphthalen-1-yl)quinazolin-2-yl)oxy)propyl)piperidin-4-yl)oxy)-4-oxo-6,9,12,15,18-pentaoxa-3-azaicosanoyl)-4-hydroxy-N-((S)-1-(4-(4-methylthiazol-5-yl)phenyl)ethyl)pyrrolidine-2-carboxamide] | C (Percent Degradation: C ≤ 35) | C (Percent Degradation: C ≤ 35) | C (Percent Degradation: C ≤ 35) |  |  |  |  |  |
| C=CC(=O)N1CCN(c2nc(O[C@H](C)CN3CCC(OCCOc4ccc5c(c4)CN(C4CCC(=O)NC4=O)C5=O)CC3)nc3c2CCN(c2cc(O)cc4ccccc24)C3)CC1 (stereo partly shown) [compound 421] | C (Percent Degradation: C ≤ 35) | C (Percent Degradation: C ≤ 35) |  | C (Percent Degradation: C ≤ 35) |  |  |  |  |
| C=CC(=O)N1CCN(c2nc(O[C@H](C)CN3CCC(OCCOc4cc([C@H](C(=O)N5C[C@H](O)C[C@H]5C(=O)N[C@@H](C)c5ccc(-c6scnc6C)cc5)C(C)C)on4)CC3)nc3c(F)c(-c4cc(O)cc5ccccc45)c(Cl)cc23)CC1 [compound 525, (2S,4R)-1-((2R)-2-(3-(2-((1-((2R)-2-((4-(4-acryloylpiperazin-1-yl)-6-chloro-8-fluoro-7-(3-hydroxynaphthalen-1-yl)quinazolin-2-yl)oxy)propyl)piperidin-4-yl)oxy)ethoxy)isoxazol-5-yl)-3-methylbutanoyl)-4-hydroxy-N-((S)-1-(4-(4-methylthiazol-5-yl)phenyl)ethyl)pyrrolidine-2-carboxamide] | C (Percent Degradation: C ≤ 35) |  |  | C (Percent Degradation: C ≤ 35) | C (Percent Degradation: C ≤ 35) |  |  |  |
| C=CC(=O)N1CCN(c2nc(O[C@H](C)CN3CCC(OCCOCCOc4cc(-c5scnc5C)ccc4CNC(=O)[C@@H]4C[C@@H](O)CN4C(=O)[C@H](c4cc(C)no4)C(C)C)CC3)nc3c2CCN(c2cc(O)cc4ccccc24)C3)CC1 [compound 439, (2S,4R)-N-(2-(2-(2-((1-((R)-2-((4-(4-acryloylpiperazin-1-yl)-7-(3-hydroxynaphthalen-1-yl)-5,6,7,8-tetrahydropyrido[3,4-d]pyrimidin-2-yl)oxy)propyl)piperidin-4-yl)oxy)ethoxy)ethoxy)-4-(4-methylthiazol-5-yl)benzyl)-4-hydroxy-1-((S)-3-methyl-2-(3-methylisoxazol-5-yl)butanoyl)pyrrolidine-2-carboxamide] | C (Percent Degradation: C ≤ 35) | C (Percent Degradation: C ≤ 35) |  | C (Percent Degradation: C ≤ 35) |  |  |  |  |
| C=CC(=O)N1CCN(c2nc(O[C@H](C)CN3CCC(OCCOCCOCCOCCOc4cc(-c5scnc5C)ccc4CNC(=O)[C@@H]4C[C@@H](O)CN4C(=O)[C@@H](c4cc(C)no4)C(C)C)CC3)nc3c2CCN(c2cc(O)cc4ccccc24)C3)CC1 [compound 442] | C (Percent Degradation: C ≤ 35) | C (Percent Degradation: C ≤ 35) |  | C (Percent Degradation: C ≤ 35) |  |  |  |  |
| C=CC(=O)N1CCN(c2nc(O[C@H](C)CN(C)CCOCCOCCOCCOCC(=O)N[C@H](C(=O)N3C[C@H](O)C[C@H]3C(=O)N[C@@H](C)c3ccc(-c4scnc4C)cc3)C(C)(C)C)nc3c(F)c(-c4cc(O)cc5ccccc45)c(Cl)cc23)CC1 [compound 397, (2S,4R)-1-((2S,20R)-20-((4-(4-acryloylpiperazin-1-yl)-6-chloro-8-fluoro-7-(3-hydroxynaphthalen-1-yl)quinazolin-2-yl)oxy)-2-(tert-butyl)-18-methyl-4-oxo-6,9,12,15-tetraoxa-3,18-diazahenicosanoyl)-4-hydroxy-N-((S)-1-(4-(4-methylthiazol-5-yl)phenyl)ethyl)pyrrolidine-2-carboxamide] | C (Percent Degradation: C ≤ 35) | C (Percent Degradation: C ≤ 35) |  | C (Percent Degradation: C ≤ 35) | C (Percent Degradation: C ≤ 35) | 100 to 1000 nM | ≤ 35% | C (Percent Degradation: C ≤ 35) |
| C=CC(=O)N1CCN(c2nc(O[C@H](C)CN3CCC(OCCOCCOCCOc4cc(-c5scnc5C)ccc4CNC(=O)[C@@H]4C[C@@H](O)CN4C(=O)[C@@H](c4cc(C)no4)C(C)C)CC3)nc3c2CCN(c2cc(O)cc4ccccc24)C3)CC1 [compound 440, (2S,4R)-N-(2-(2-(2-(2-((1-((R)-2-((4-(4-acryloylpiperazin-1-yl)-7-(3-hydroxynaphthalen-1-yl)-5,6,7,8-tetrahydropyrido[3,4-d]pyrimidin-2-yl)oxy)propyl)piperidin-4-yl)oxy)ethoxy)ethoxy)ethoxy)-4-(4-methylthiazol-5-yl)benzyl)-4-hydroxy-1-((R)-3-methyl-2-(3-methylisoxazol-5-yl)butanoyl)pyrrolidine-2-carboxamide] | C (Percent Degradation: C ≤ 35) | C (Percent Degradation: C ≤ 35) |  | C (Percent Degradation: C ≤ 35) |  |  |  |  |
| C=CC(=O)N1CCN(c2nc(O[C@H](C)CN3CCC(OCCNc4cccc5c4C(=O)N(C4CCC(=O)NC4=O)C5=O)CC3)nc3c2CCN(c2cc(O)cc4ccccc24)C3)CC1 (stereo partly drawn) [compound 411, 4-((2-((1-((R)-2-((4-(4-acryloylpiperazin-1-yl)-7-(3-hydroxynaphthalen-1-yl)-5,6,7,8-tetrahydropyrido[3,4-d]pyrimidin-2-yl)oxy)propyl)piperidin-4-yl)oxy)ethyl)amino)-2-(2,6-dioxopiperidin-3-yl)isoindoline-1,3-dione] | C (Percent Degradation: C ≤ 35) | C (Percent Degradation: C ≤ 35) |  | C (Percent Degradation: C ≤ 35) |  |  |  |  |
| C=CC(=O)N1CCN(c2nc(OC[C@@H]3C[C@@H](OCCOCCOCCOCCOCC(=O)N[C@H](C(=O)N4C[C@H](O)C[C@H]4C(=O)N[C@@H](C)c4ccc(-c5scnc5C)cc4)C(C)(C)C)CN3C)nc3c2CCN(c2cccc4ccccc24)C3)C[C@@H]1CC#N [compound 480] | C (Percent Degradation: C ≤ 35) | C (Percent Degradation: C ≤ 35) |  | C (Percent Degradation: C ≤ 35) |  |  |  |  |
